The assay has as its system Wnt/β-catenin pathway. Briefly: Wnt reporter assay (TCF-Luciferase, Firefly) in DBTRG-05MG cells. Particulars: Homo sapiens, 24 hours after compound addition. It is filed as cell-based. In a few lines: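 DBTRG-05MG cells carrying a 4×TCF-driven firefly luciferase reporter, kept under Zeocin or Zeocin plus Hygromicin selection. Compounds added 36 hours after plating at 8 points from 60 μM to 0.185 μM (0.6% DMSO), triplicate, for 24 hours. Firefly and Renilla luminescence each expressed as % of control; IC50 from four-parameter sigmoid fit.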

A word on the IC50: it is the concentration needed to halve the response being measured. High values mean weaker potency, low ones greater potency. In the case of `COCC(=O)N1CCN(C(=O)[C@H]2CC[C@H](Cn3c(=O)[nH]c4ccc(OC)cc4c3=O)CC2)C[C@@H]1C` [Example 159], the 50% inhibitory concentration (IC50) lay in the range of 0.3 to 30 µM.

`COc1ccc2[nH]c(=O)n(C[C@H]3CC[C@H](C(=O)N4CCN(C)C(=O)C4)CC3)c2c1` [Example 160]: the 50% inhibitory concentration (IC50) was 0.3 to 30 µM.

Take `CCOc1ccc2[nH]c(=O)n(C[C@H]3CC[C@H](C(=O)N4CCN(C(=O)C5CC5)CC4)CC3)c(=O)c2c1` [Example 161]: the 50% inhibitory concentration (IC50) lay within 0.3 to 30 µM.

On to `CCOc1ccc2[nH]c(=O)n(C[C@H]3CC[C@H](C(=O)N4CCN(C(=O)C(C)C)CC4)CC3)c(=O)c2c1` [Example 162], for which the IC50 was in the range of 0.3 to 30 µM.

Regarding `Cn1c(=O)n(C[C@H]2CC[C@H](C(=O)N3CCN(C(=O)C4CC4)CC3)CC2)c2cc(C(F)(F)F)ccc21` [Example 163], the IC50 lay in the range of 0.3 to 30 µM.

In turn, `Cn1c(=O)n(C[C@H]2CC[C@H](C(=O)N3CCOCC3)CC2)c2c(Cl)cccc21` [Example 164] yielded an IC50 of 0.3 to 30 µM.

Consider `COc1ccc2c(c1)c(=O)n(C[C@H]1CC[C@H](C(=O)Nc3ccncc3)CC1)c(=O)n2C` [Example 165], for which the 50% inhibitory concentration (IC50) was 0.3 to 30 µM.

On to `COc1ccc2c(n1)n(C[C@H]1CC[C@H](C(=O)N3CCN(C(=O)C4CC4)CC3)CC1)c(=O)n2C` [Example 166], for which the IC50 was 0.3 to 30 µM.

Compound `COc1ccc2c(n1)n(C[C@H]1CC[C@H](C(=O)N3CCOCC3)CC1)c(=O)n2C` [Example 167] registered a concentration for half-maximal inhibition (IC50) of 0.3 to 30 µM.

`Cn1c(=O)n(C[C@H]2CC[C@H](C(=O)N3CCN(C(=O)C4CC4)CC3)CC2)c2c(Cl)cccc21` [Example 168] yielded an IC50 of 0.3 to 30 µM.

Consider `CN1CCN(C(=O)[C@H]2CC[C@H](Cn3c(=O)n(C)c4ccc(C(F)(F)F)cc43)CC2)CC1=O` [Example 170], for which the half-maximal inhibitory concentration (IC50) lay within 0.3 to 30 µM.

For the compound `COc1ccc2c(c1)c(=O)n(C[C@H]1CC[C@H](C(=O)N3CCN(C(=O)n4ccnc4)CC3)CC1)c(=O)n2C` [Example 171], the IC50 was 0.3 to 30 µM.

As to `COc1ccc2c(c1)c(=O)n(C[C@H]1CC[C@H](C(=O)Nc3ccncc3C)CC1)c(=O)n2C` [Example 172], the half-inhibitory concentration (IC50) lay within 0.3 to 30 µM.

`COc1ccc2c(c1)c(=O)n(C[C@H]1CC[C@H](C(=O)Nc3ccc(F)nc3)CC1)c(=O)n2C` [Example 173] returned an IC50 of 0.3 to 30 µM.

In turn, `COc1ccc2c(c1)c(=O)n(C[C@H]1CC[C@H](C(=O)Nc3cncc(F)c3)CC1)c(=O)n2C` [Example 174] gave an IC50 of 0.3 to 30 µM.

As for `CCOC(=O)N1CCN(C(=O)[C@H]2CC[C@H](Cn3c(=O)c4cc(OC)ccc4n(C)c3=O)CC2)CC1` [Example 176], the IC50 lay in the range of 0.3 to 30 µM.

For the compound `COc1ccc2c(c1)c(=O)n(C[C@H]1CC[C@H](C(=O)Nc3ccnc(OC)c3)CC1)c(=O)n2C` [Example 177], the IC50 fell in the range of 0.3 to 30 µM.

`COc1cccc2c1CN(C[C@H]1CC[C@H](C(=O)N3CCN(c4nccs4)CC3)CC1)C(=O)N2` [Example 178]: the IC50 lay within 0.3 to 30 µM.

The compound `COc1ccc2c(c1)c(=O)n(C[C@H]1CC[C@H](C(=O)N3CCN(C(C)=O)CC3)CC1)c(=O)n2C(F)F` [Example 179] showed a concentration for half-maximal inhibition (IC50) of 0.3 to 30 µM.

For `CC(=O)N1CCN(C(=O)[C@H]2CC[C@H](Cn3c(=O)n(C)c4ccc(Cl)cc43)CC2)CC1` [Example 180], the half-inhibitory concentration (IC50) is 0.3 to 30 µM.

With `Cn1c(=O)n(C[C@H]2CC[C@H](C(=O)N3CCOCC3)CC2)c2cc(Cl)ccc21` [Example 181], the IC50 was 0.3 to 30 µM.

Turning to `COC(=O)N1CCN(C(=O)[C@H]2CC[C@H](Cn3c(=O)n(C)c4ccc(OC)cc43)CC2)CC1` [Example 182], the IC50 was 0.3 to 30 µM.

`COCC(=O)N1CCN(C(=O)[C@H]2CC[C@H](Cn3c(=O)n(C)c4ccc(OC)cc43)CC2)CC1` [Example 183] yielded an IC50 of 0.3 to 30 µM.

With `COc1ccc2c(c1)n(C[C@H]1CC[C@H](C(=O)N3CCN(C(=O)C(C)C)CC3)CC1)c(=O)n2C` [Example 184], the IC50 lay in the range of 0.3 to 30 µM.

For the compound `COc1ccc2c(c1)n(C[C@H]1CC[C@H](C(=O)N3CCN(C(=O)c4cncn4C)CC3)CC1)c(=O)n2C` [Example 185], the IC50 lay within 0.3 to 30 µM.

With `COc1cc2c(cc1Cl)n(C[C@H]1CC[C@H](C(=O)N3CCOCC3)CC1)c(=O)n2C` [Example 186], the IC50 lay in the range of 0.3 to 30 µM.

Compound `COc1ccc2c(c1)c(=O)n(C[C@H]1CC[C@H](C(=O)Nc3ccc4ncccc4c3)CC1)c(=O)n2C` [Example 187] displayed a 50% inhibitory concentration (IC50) of 0.3 to 30 µM.

As for `COc1ccc2c(c1)c(=O)n(C[C@H]1CC[C@H](C(=O)Nc3cccc4ncccc34)CC1)c(=O)n2C` [Example 188], the IC50 was in the range of 0.3 to 30 µM.

Compound `COc1ccc2c(c1)c(=O)n(C[C@H]1CC[C@H](C(=O)Nc3ccc(-c4ncco4)cc3)CC1)c(=O)n2C` [Example 189] showed an IC50 of 0.3 to 30 µM.

Turning to `COc1ccc2c(c1)c(=O)n(C[C@H]1CC[C@H](C(=O)Nc3cnc4ccccn34)CC1)c(=O)n2C` [Example 190], the IC50 is 0.3 to 30 µM.

`COc1cccc(NC(=O)[C@H]2CC[C@H](Cn3c(=O)c4cc(OC)ccc4n(C)c3=O)CC2)c1` [Example 191] showed an IC50 of 0.3 to 30 µM.

Take `COc1ccc2c(c1)n(C[C@H]1CC[C@H](C(=O)N3CCN(C(=O)C4CCCO4)CC3)CC1)c(=O)n2C` (stereo partly shown) [Example 192]: the IC50 fell in the range of 0.3 to 30 µM.

For `COc1ccc2c(c1)c(=O)n(C[C@H]1CC[C@H](C(=O)Nc3ccon3)CC1)c(=O)n2C` [Example 193], the IC50 fell in the range of 0.3 to 30 µM.

On to `COc1ccc2c(c1)c(=O)n(C[C@H]1CC[C@H](C(=O)Nc3ccc4nc(C)oc4c3)CC1)c(=O)n2C` [Example 194], for which the 50% inhibitory concentration (IC50) is 0.3 to 30 µM.

Compound `COc1ccc2c(c1)c(=O)n(C[C@H]1CC[C@H](C(=O)N3CCN(c4ccncc4)CC3)CC1)c(=O)n2C` [Example 195] displayed an IC50 of 0.3 to 30 µM.

Regarding `CCOc1ccc2c(c1)c(=O)n(C[C@H]1CC[C@H](C(=O)Nc3ccncc3)CC1)c(=O)n2C` [Example 196], the 50% inhibitory concentration (IC50) lay within 0.3 to 30 µM.

The compound `CCOc1ccc2c(c1)c(=O)n(C[C@H]1CC[C@H](C(=O)N3CCN(c4ccncc4)CC3)CC1)c(=O)n2C` [Example 197] returned an IC50 of 0.3 to 30 µM.

As for `CCOc1ccc2c(c1)c(=O)n(C[C@H]1CC[C@H](C(=O)N3CCN(C(=O)COC)CC3)CC1)c(=O)n2C` [Example 198], the IC50 was 0.3 to 30 µM.

The compound `CCOc1ccc2c(c1)c(=O)n(C[C@H]1CC[C@H](C(=O)N3CCN(C(=O)C4CCCC4)CC3)CC1)c(=O)n2C` [Example 199] displayed a half-maximal inhibitory concentration (IC50) of 0.3 to 30 µM.

As for `CCOc1ccc2c(c1)c(=O)n(C[C@H]1CC[C@H](C(=O)N3CCN(C(C)=O)CC3)CC1)c(=O)n2C` [Example 200], the half-inhibitory concentration (IC50) was 0.3 to 30 µM.

Compound `COc1ccc2c(c1)c(=O)n(C[C@H]1CC[C@H](C(=O)Nc3cccc4cccnc34)CC1)c(=O)n2C` [Example 201] came in with an IC50 of 0.3 to 30 µM.

Compound `CC(=O)N1CCN(C(=O)[C@H]2CC[C@H](Cn3c(=O)n(C)c4ccc(C(F)(F)F)cc43)CC2)CC1` [Example 202] came in with a half-maximal inhibitory concentration (IC50) of 0.3 to 30 µM.

The compound `COC(=O)N1CCN(C(=O)[C@H]2CC[C@H](Cn3c(=O)n(C)c4ccc(C)nc43)CC2)CC1` [Example 203] registered an IC50 of 0.3 to 30 µM.

Compound `COCC(=O)N1CCN(C(=O)[C@H]2CC[C@H](Cn3c(=O)n(C)c4ccc(C)nc43)CC2)CC1` [Example 204] came in with an IC50 of 0.3 to 30 µM.

As for `COC(=O)N1CCN(C(=O)[C@H]2CC[C@H](Cn3c(=O)n(C)c4ccc(OC)nc43)CC2)CC1` [Example 205], the IC50 was in the range of 0.3 to 30 µM.

For the compound `CCOc1ccc2c(c1)c(=O)n(C[C@H]1CC[C@H](C(=O)N3CCN(C(=O)c4cncn4C)CC3)CC1)c(=O)n2C` [Example 206], the IC50 fell in the range of 0.3 to 30 µM.

(Values after patent US8865704B2, “Wnt pathway antagonists” (Siena Biotech S.p.A., priority 2009, dated 2014).)
